Reference: paper PMC4992410 (ACS chemical biology, 2016)

Test system: full-length IRE1α in INS-1 rat insulinoma cells
Experiment: XBP1 mRNA splicing in INS-1 cells
Assay type: cell-based
Conditions: absence of ER stress; for spliced cellular XBP1 mRNA levels: 3 and 10 μM, 2 hours

| SMILES | spliced cellular XBP1 mRNA levels | spliced XBP1 mRNA level compared with 0.5 μg/mL tunicamycin |
| --- | --- | --- |
| NC(=O)Nc1cc(-c2cccc(F)c2)sc1C(=O)N[C@H]1CCCNC1 [AZD7762] | increase in spliced cellular XBP1 mRNA levels | – |
| O=C(Nc1c[nH]nc1-c1nc2ccc(CN3CCOCC3)cc2[nH]1)NC1CC1 [AT9283] | increase in spliced cellular XBP1 mRNA levels | equal or greater level |
| COc1cc(N2CCC(N3CCN(C)CC3)CC2)ccc1Nc1ncc(Cl)c(Nc2ccccc2P(C)(C)=O)n1 [AP26113] | increase in spliced cellular XBP1 mRNA levels | equal or greater level |
| COc1cc(N2CCC(N3CCN(C)CC3)CC2)ccc1Nc1ncc(Cl)c(Nc2ccccc2S(=O)(=O)C(C)C)n1 [TAE684] | increase in spliced cellular XBP1 mRNA levels | – |
